Earlier results in paper PMC2978073 (Journal of medicinal chemistry, 2010).

Experiments:
[1] = system: rabbit model for cerebral palsy
[2] = compared with 3

bioavailability [2]	Structure (SMILES)	effect on eNOS-regulated blood pressure [1]	hypoxia-ischemia induced death [1]	number of newborn kits exhibiting cerebral palsy phenotype [1]
	Cc1cc(N)nc(C[C@H]2CNC[C@H]2NCCNCCc2cccc(F)c2)c1 (racemic) [(±)-3]	without affecting eNOS-regulated blood pressure	prevent hypoxia-ischemia induced death	reduce the number of newborn kits exhibiting cerebral palsy phenotype
improved bioavailability	Cc1cc(N)nc(C[C@H]2CNC[C@H]2OCCNCCc2cccc(F)c2)c1 (racemic) [(±)-4]			
	Cc1cc(N)nc(C[C@H]2CNC[C@H]2NCCNCc2ccc(Cl)cc2)c1 (racemic) [(±)-2]	without affecting eNOS-regulated blood pressure	prevent hypoxia-ischemia induced death	reduce the number of newborn kits exhibiting cerebral palsy phenotype
